Experiment: Solubility in water
Assay type: physicochemical
Details: sugar residue as R5 or/and R6

solubility in water: high solubility in water
SMILES: CCN(CC)c1ccc2c(-c3ccccc3C(=O)N(C)CC(O)C(O)C(O)C(O)CO)c3ccc(=[N+](CC)CC)cc-3oc2c1 (stereo not shown) [Compound 51]

Reference: US8785637B2, “Carboxamide-substituted dyes for analytical applications” (ATTO-TEC GmbH, priority 2002, dated 2014)
